molecular target: human FAK (Homo sapiens (Human), UniProt Q05397); conditions: read-out: FAK IC50
Sequence (Q05397 whole entry): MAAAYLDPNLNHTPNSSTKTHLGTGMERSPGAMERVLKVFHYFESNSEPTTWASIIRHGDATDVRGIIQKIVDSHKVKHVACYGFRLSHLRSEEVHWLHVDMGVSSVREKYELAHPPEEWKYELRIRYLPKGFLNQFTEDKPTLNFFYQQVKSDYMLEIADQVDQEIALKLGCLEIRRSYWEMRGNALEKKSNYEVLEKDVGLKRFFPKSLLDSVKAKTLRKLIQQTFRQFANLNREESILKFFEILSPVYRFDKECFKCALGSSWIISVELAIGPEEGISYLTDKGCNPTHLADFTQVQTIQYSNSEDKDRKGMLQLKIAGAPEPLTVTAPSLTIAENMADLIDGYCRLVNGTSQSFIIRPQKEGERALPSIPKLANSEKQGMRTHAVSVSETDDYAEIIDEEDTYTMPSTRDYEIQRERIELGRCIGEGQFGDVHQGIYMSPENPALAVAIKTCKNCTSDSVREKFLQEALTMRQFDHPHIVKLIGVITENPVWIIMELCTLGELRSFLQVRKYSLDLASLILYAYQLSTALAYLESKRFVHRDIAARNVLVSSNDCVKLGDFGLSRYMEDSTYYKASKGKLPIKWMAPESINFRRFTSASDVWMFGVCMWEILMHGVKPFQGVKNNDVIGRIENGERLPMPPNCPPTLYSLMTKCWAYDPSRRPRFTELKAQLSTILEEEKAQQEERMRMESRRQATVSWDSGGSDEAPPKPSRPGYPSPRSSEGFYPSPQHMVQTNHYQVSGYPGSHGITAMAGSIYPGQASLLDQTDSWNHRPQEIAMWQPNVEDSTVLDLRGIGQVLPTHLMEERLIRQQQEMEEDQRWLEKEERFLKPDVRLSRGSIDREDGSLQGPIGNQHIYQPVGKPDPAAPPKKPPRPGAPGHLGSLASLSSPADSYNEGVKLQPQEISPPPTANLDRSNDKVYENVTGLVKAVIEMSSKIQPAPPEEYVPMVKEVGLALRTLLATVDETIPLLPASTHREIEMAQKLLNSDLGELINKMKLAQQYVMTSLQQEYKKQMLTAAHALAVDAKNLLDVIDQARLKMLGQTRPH

Question: `CN1CCN(c2cncc(Nc3nc4cncc(-c5ccc(S(C)(=O)=O)cc5)n4n3)c2)CC1` [Example 108, [5-(4-Methanesulfonyl-phenyl)-[1,2,4]triazolo[1,5-a]pyrazin-2-yl]-[5-(4-methyl-piperazin-1-yl)-pyridin-3-yl]-amine] was tested. Which IC50 did it give?
Answer: 3370 nM

Question: Which IC50 does the source give for `FC1(F)Oc2cccc(-c3cccn4nc(Nc5ccc6c(c5)CCNCC6)nc34)c2O1` [Example 244, [8-(2,2-difluoro-1,3-benzodioxol-4-yl)-[1,2,4]triazolo[1,5-a]pyridin-2-yl]-(2,3,4,5-tetrahydro-1H-3-benzazepin-7-yl)amine] here?
Answer: 6500 nM

Question: `CCn1cc(Nc2nc3c(-c4ccc(C(F)(F)F)cc4)cccn3n2)cn1` [Example 215, (1-Ethyl-1H-pyrazol-4-yl)-[8-(4-trifluoromethyl-phenyl)-[1,2,4]triazolo[1,5-a]pyridin-2-yl]-amine] was tested. Which IC50 did it give?
Answer: 10000 nM

Question: How did the IC50 turn out when `COc1cccc(-c2cccn3nc(Nc4ccc5c(c4)CNC5)nc23)c1` [Example 346, (2,3-Dihydro-1H-isoindol-5-yl)-[8-(3-methoxy-phenyl)-[1,2,4]-triazolo[1,5-a]pyridin-2-yl]-amine] was run?
Answer: 999 nM

Question: Which IC50 does the source give for `CN1CCN(c2cccc(Nc3nc4c(NCc5ccccc5N(C)S(C)(=O)=O)cccn4n3)c2)CC1` [Example 148, N-Methyl-N-[2-({2-[3-(4-methyl-piperazin-1-yl)-phenylamino]-[1,2,4]triazolo[1,5-a]pyridin-8-ylamino}-methyl)-phenyl]-methanesulfonamide] here?
Answer: 14.6 nM

Question: `CN1CCN(c2ccc(Nc3nc4c(Nc5cccc(S(C)(=O)=O)c5)cccn4n3)cc2)CC1` [Example 109, N(8)-(3-Methanesulfonyl-phenyl)-N(2)-[4-(4-methyl-piperazin-1-yl)-phenyl]-[1,2,4]triazolo[1,5-a]pyridine-2,8-diamine] was tested. Which IC50 did it give?
Answer: 10000 nM

Question: Which IC50 does the source give for `FC(F)COc1ccccc1-c1cccn2nc(Nc3ccc4c(c3)CCNCC4)nc12` [Example 367, {8-[2-(2,2-Difluoro-ethoxy)-phenyl]-[1,2,4]triazolo[1,5-a]pyridin-2-yl}-(2,3,4,5-tetrahydro-1H-3-benzazepin-7-yl)-amine] here?
Answer: 1910 nM

Question: `CS(=O)(=O)c1ccc(-c2cccn3nc(Nc4ccc(N5CCC(N6CCOCC6)CC5)cc4)nc23)cc1` [Example 49, [8-(4-Methanesulfonyl-phenyl)-[1,2,4]triazolo[1,5-a]pyridin-2-yl]-[4-(4-morpholin-4-yl-piperidin-1-yl)-phenyl]-amine] was tested. Which IC50 did it give?
Answer: 251 nM

Question: With `CN1C(=O)Cc2cc(Nc3nc4c(NCc5cccnc5N(C)S(C)(=O)=O)cccn4n3)ccc21` [Example 146, N-Methyl-N-(3-{[2-(1-methyl-2-oxo-2,3-dihydro-1H-indol-5-ylamino)-[1,2,4]triazolo[1,5-a]pyridin-8-ylamino]-methyl}-pyridin-2-yl)-methanesulfonamide] as the compound, how does the IC50 read?
Answer: 106 nM

Question: Which IC50 does the source give for `COc1cc(C(F)(F)F)ccc1-c1cccc2nc(Nc3ccc4c(c3)CCN(CCS(C)(=O)=O)CC4)nn12` [Example 238] here?
Answer: 1950 nM

Question: For `CS(=O)(=O)c1cccc(-c2cccc3nc(Nc4ccc(CN5CCOCC5)cc4)nn23)c1` [Example 87, [5-(3-Methanesulfonyl-phenyl)-[1,2,4]triazolo[1,5-a]pyridin-2-yl]-(4-morpholin-4-ylmethyl-phenyl)-amine], which IC50 is on record?
Answer: 341 nM

Question: For `COc1ccc(C(F)(F)F)cc1-c1cccn2nc(Nc3cccc(C4CCN(CC(=O)N(C)C)CC4)c3)nc12` [Example 410], which IC50 is on record?
Answer: 658 nM

Question: Which IC50 does the source give for `CN1CCN(c2ccc(Nc3nc4c(-c5ccc(S(=O)(=O)N(C)C)cc5)cccn4n3)cc2)CC1` [Example 54, N,N-Dimethyl-4-{2-[4-(4-methyl-piperazin-1-yl)-phenylamino]-[1,2,4]triazolo[1,5-a]pyridin-8-yl}-benzenesulfonamide] here?
Answer: 787 nM

Question: How did the IC50 turn out when `CC(C)Oc1ccc(C(F)(F)F)cc1-c1cccn2nc(Nc3ccc4c(c3)CCN(CC(=O)N(C)C)CC4)nc12` [Example 326, 2-{7-[8-(2-Isopropoxy-5-trifluoromethyl-phenyl)-[1,2,4]triazolo[1,5-a]pyridin-2-ylamino]-1,2,4,5-tetrahydro-3-benzazepin-3-yl}-N,N-dimethyl-acetamide] was run?
Answer: 5500 nM

Question: How did the IC50 turn out when `CC(C)COc1ccc(C(F)(F)F)cc1-c1cccn2nc(Nc3ccc4c(c3)CCNCC4)nc12` [Example 379, [8-(2-Isobutoxy-5-trifluoromethyl-phenyl)-[1,2,4]triazolo[1,5-a]pyridin-2-yl]-(2,3,4,5-tetrahydro-1H-3-benzazepin-7-yl)-amine] was run?
Answer: 3000 nM

Question: With `CS(=O)(=O)c1ccc(-c2cccn3nc(Nc4cccc(C5CCNCC5)c4)nc23)cc1` [Example 182, [8-(4-Methanesulfonyl-phenyl)-[1,2,4]triazolo[1,5-a]pyridin-2-yl]-(3-piperidin-4-yl-phenyl)-amine] as the compound, how does the IC50 read?
Answer: 1000 nM

Question: For `CCN1CCN(c2cccc(Nc3nc4c(-c5ccc(S(C)(=O)=O)cc5)cccn4n3)c2)C(=O)C1` [Example 205, 4-Ethyl-1-{3-[8-(4-methanesulfonyl-phenyl)-[1,2,4]triazolo[1,5-a]pyridin-2-ylamino]-phenyl}-piperazin-2-one], which IC50 is on record?
Answer: 10000 nM

Question: `Fc1ccc(C(F)(F)F)cc1-c1cccn2nc(Nc3ccc4c(c3)CCNCC4)nc12` [Example 270, [8-(2-Fluoro-5-trifluoromethyl-phenyl)-[1,2,4]triazolo[1,5-a]pyridin-2-yl]-[2,3,4,5-tetrahydro-1H-benzo[d]azopin-7-yl]-amine] was tested. Which IC50 did it give?
Answer: 6500 nM

Question: `CN1CCN(c2ccc(Nc3nc4c(NCC5CCCN5S(C)(=O)=O)cccn4n3)cc2)CC1` (stereo not shown) [Example 170, N(8)-(1-Methanesulfonyl-pyrrolidin-2-ylmethyl)-N(2)-[4-(4-methyl-piperazin-1-yl)-phenyl]-[1,2,4]triazolo[1,5-a]pyridine-2,8-diamine] was tested. Which IC50 did it give?
Answer: 872 nM

Question: With `CN1CCN(c2ccc(Nc3nc4c(-c5cccc(N(C)S(C)(=O)=O)c5)cccn4n3)cc2)CC1` [Example 127, N-Methyl-N-(3-{2-[4-(4-methyl-piperazin-1-yl)-phenylamino]-[1,2,4]triazolo[1,5-a]pyridin-8-yl}-phenyl)-methanesulfonamide] as the compound, how does the IC50 read?
Answer: 3130 nM

Question: `CN1CCN(c2ccc(Nc3nc4c(OCc5cccc(Cl)c5)cccn4n3)cc2)CC1` [Example 260, [8-(3-Chloro-benzyloxy)-[1,2,4]triazolo[1,5-a]pyridin-2-yl]-[4-(4-methyl-piperazin-1-yl)-phenyl]-amine] was tested. Which IC50 did it give?
Answer: 1100 nM

Question: Which IC50 does the source give for `O=c1[nH]cccc1-c1cccn2nc(Nc3ccc4ncccc4c3)nc12` [Example 276, 3-[2-(Quinolin-6-ylamino)-[1,2,4]triazolo[1,5-a]pyridin-8-yl]-1H-pyridin-2-one] here?
Answer: 10000 nM

Question: `CN1CCC(c2ccc(Nc3nc4c(NCc5ccccc5CN(C)S(C)(=O)=O)cccn4n3)cc2)CC1` [Example 159, N-Methyl-N-[2-({2-[4-(1-methyl-piperidin-4-yl)-phenylamino]-[1,2,4]triazolo[1,5-a]pyridin-8-ylamino}-methyl)-benzyl]-methanesulfonamide] was tested. Which IC50 did it give?
Answer: 538 nM

Question: How did the IC50 turn out when `CN1CCN(c2cccc(Nc3nc4c(OCc5ccccc5C#N)cccn4n3)c2)CC1` [Example 263, 2-{2-[3-(4-Methyl-piperazin-1-yl)-phenylamino]-[1,2,4]triazolo[1,5-a]pyridin-8-yloxymethyl}-benzonitrile] was run?
Answer: 3000 nM

Question: How did the IC50 turn out when `COc1ccccc1CNc1cccn2nc(Nc3ccncc3)nc12` [Example 401, N(8)-(2-Methoxy-benzyl)-N(2)-pyridin-4-yl-[1,2,4]triazolo[1,5-a]pyridine-2,8-diamine] was run?
Answer: 6500 nM

Question: With `COc1cccc(CNc2cccn3nc(Nc4ccncc4)nc23)c1` [Example 399, N(8)-(3-Methoxy-benzyl)-N(2)-pyridin-4-yl-[1,2,4]triazolo[1,5-a]pyridine-2,8-diamine] as the compound, how does the IC50 read?
Answer: 10000 nM

Question: For `CS(=O)(=O)CCN1CCC(c2cccc(Nc3nc4c(-c5ccc(S(C)(=O)=O)cc5)cccn4n3)c2)CC1` [Example 190, {3-[1-(2-Methanesulfonyl-ethyl)-piperidin-4-yl]-phenyl}-[8-(4-methanesulfonyl-phenyl)-[1,2,4]triazolo[1,5-a]pyridin-2-yl]-amine], which IC50 is on record?
Answer: 580 nM

Question: With `CC(C)Oc1ccccc1-c1cccn2nc(Nc3ccc4c(c3)CCNCC4)nc12` [Example 299, [8-(2-Isopropoxy-phenyl]-[1,2,4]triazolo[1,5a]pyridine-2-yl]-(2,3,4,5-tetrahydro-benzo[d]azepin-7-yl)-amine] as the compound, how does the IC50 read?
Answer: 999 nM

Question: With `CS(=O)(=O)c1ccccc1Nc1nc2c(Nc3ccccc3S(C)(=O)=O)cccn2n1` [Example 69, N(2),N(8)-Bis-(2-methanesulfonyl-phenyl)-[1,2,4]triazolo[1,5-a]pyridine-2,8-diamine] as the compound, how does the IC50 read?
Answer: 6500 nM

Question: For `COc1ccc(Nc2nc3c(-c4ccc(S(C)(=O)=O)cc4)cccn3n2)cc1` [Example 19, [8-(4-Methanesulfonyl-phenyl)-[1,2,4]triazolo[1,5-a]pyridin-2-yl]-(4-methoxy-phenyl)-amine], which IC50 is on record?
Answer: 1580 nM

Question: How did the IC50 turn out when `CN(C)C(=O)CN1CCC(c2ccc(Nc3nc4c(-c5cnn(-c6ccc(F)cc6)c5)cccn4n3)cc2)CC1` [Example 283, 2-[4-(4-{8-{1-(4-Fluoro-phenyl)1H-pyrazol-4-yl}-[1,2,4]triazolo[1,5-a]pyridine-2-ylamino}-phenyl)-piperidin-1-yl]-N,N-dimethyl-acetamide] was run?
Answer: 1370 nM

molecular target: human JAK2 (Homo sapiens (Human), UniProt O60674); conditions: read-out: JAK2 IC50
Sequence (O60674 815-1132): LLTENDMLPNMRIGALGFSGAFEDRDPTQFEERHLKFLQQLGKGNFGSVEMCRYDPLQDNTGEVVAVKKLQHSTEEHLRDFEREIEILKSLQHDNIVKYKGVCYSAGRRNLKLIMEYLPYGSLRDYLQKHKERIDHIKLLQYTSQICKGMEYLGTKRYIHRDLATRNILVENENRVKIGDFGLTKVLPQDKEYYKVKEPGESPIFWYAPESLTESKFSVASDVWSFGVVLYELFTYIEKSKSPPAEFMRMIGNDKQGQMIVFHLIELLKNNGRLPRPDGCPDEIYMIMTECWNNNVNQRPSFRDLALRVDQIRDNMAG

Question: `COc1ccc(Nc2nc3c(N4CCN(S(C)(=O)=O)CC4)cccn3n2)cc1` [Example 33, [8-(4-Methanesulfonyl-piperazin-1-yl)-[1,2,4]triazolo[1,5-a]pyridin-2-yl]-(4-methoxy-phenyl)-amine] was tested. Which IC50 did it give?
Answer: 60.4 nM

Question: With `CN1CCN(c2cccc(Nc3nc4c(Nc5ccccc5S(C)(=O)=O)cccn4n3)c2)CC1` [Example 68, N(8)-(2-Methanesulfonyl-phenyl)-N(2)-[3-(4-methyl-piperazin-1-yl)-phenyl]-[1,2,4]triazolo[1,5-a]pyridine-2,8-diamine] as the compound, how does the IC50 read?
Answer: 29 nM

Question: For `Cc1ccc(-n2cc(-c3cccn4nc(Nc5ccc(C6CCN(C(=O)OC(C)(C)C)CC6)cc5)nc34)cn2)cc1` [Example 287, 4-{4-[8-(1-p-Tolyl-1H-pyrazol-4-yl)-[1,2,4]triazolo[1,5-a]pyridine-2-ylamino]-phenyl}-piperidine-1-carboxylic acid tert-butyl ester], which IC50 is on record?
Answer: 1690 nM

— US8501936B2 (priority 2009, dated 2013)
